In assay [1] the target is T1, Mineralocorticoid receptor (Homo sapiens, UniProt P08235).
T1 sequence (P08235 whole entry): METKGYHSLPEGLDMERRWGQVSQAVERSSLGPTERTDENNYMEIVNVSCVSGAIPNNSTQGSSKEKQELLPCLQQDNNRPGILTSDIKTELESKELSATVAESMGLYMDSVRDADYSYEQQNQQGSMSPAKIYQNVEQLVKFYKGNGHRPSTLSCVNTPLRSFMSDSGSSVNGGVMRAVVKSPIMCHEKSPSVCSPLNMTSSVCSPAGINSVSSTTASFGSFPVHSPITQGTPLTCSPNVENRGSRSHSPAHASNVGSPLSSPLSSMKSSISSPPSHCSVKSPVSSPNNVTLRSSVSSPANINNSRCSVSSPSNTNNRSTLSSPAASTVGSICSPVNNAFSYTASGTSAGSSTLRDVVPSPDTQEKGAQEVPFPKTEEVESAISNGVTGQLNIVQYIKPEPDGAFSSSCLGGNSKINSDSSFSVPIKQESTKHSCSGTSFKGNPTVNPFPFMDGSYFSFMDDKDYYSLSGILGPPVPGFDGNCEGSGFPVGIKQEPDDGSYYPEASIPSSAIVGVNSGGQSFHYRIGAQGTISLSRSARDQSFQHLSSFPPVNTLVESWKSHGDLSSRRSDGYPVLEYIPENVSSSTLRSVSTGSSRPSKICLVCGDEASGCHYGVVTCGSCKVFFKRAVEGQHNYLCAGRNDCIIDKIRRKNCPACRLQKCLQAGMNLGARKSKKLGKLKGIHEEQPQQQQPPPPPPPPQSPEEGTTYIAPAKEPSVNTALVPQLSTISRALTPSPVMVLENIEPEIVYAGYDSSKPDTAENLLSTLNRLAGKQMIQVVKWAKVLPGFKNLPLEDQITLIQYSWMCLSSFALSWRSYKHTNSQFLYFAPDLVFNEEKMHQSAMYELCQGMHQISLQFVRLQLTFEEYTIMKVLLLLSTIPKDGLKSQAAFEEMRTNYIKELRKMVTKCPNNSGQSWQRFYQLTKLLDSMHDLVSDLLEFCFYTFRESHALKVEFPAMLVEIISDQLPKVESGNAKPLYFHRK
The experiment in a line: Affinity for recombinant Mineralocorticoid receptor. The following applies: read-out: Kd app.

Assay [2] has as its target T1, Mineralocorticoid receptor. The experiment in a line: Inhibition of 10e-9 M aldosterone activity in CV-1 cells expressing mineralocorticoid receptor. It is filed as functional, cell-based.
The target in assay [3] is T2, Mineralocorticoid receptor (Homo sapiens) (UniProt P08235).
T2 sequence (whole entry): T1 sequence (P08235 whole entry)
Particulars: CV-1.
Description: Transcriptional activation activity in CV-1 cells expressing mineralocorticoid receptor

One may read the IC50 as the concentration needed to halve the response being measured. A high value points to weaker potency.

Regarding `C[C@@H](O)C1CC[C@H]2[C@@H]3CCC4=CC(=O)CCC4(C)[C@H]3CCC12C(=O)C=[N+]=[N-]` (stereo partly specified), the Kd in assay [1] came to 0.02 µM. The concentration for half-maximal inhibition (IC50) in assay [2] came to 0.9 µM.

For `CC(=O)C1CC[C@H]2[C@@H]3CCC4=CC(=O)CCC4(C)[C@H]3CCC12C(=O)[CH-][N+]#N` (stereo partly specified), the Kd in assay [1] is 0.02 µM. In addition, half-maximal inhibition in assay [2] (IC50) was put at 0.7 µM.

In assay [3], `CC12CCC(=O)C=C1CCC1C2CCC2(C)C(C(=O)C=[N+]=[N-])CCC12` (stereo unspecified) registered an ED50 of 0.006 µM. Besides, the Kd in assay [1] was 0.00074 µM.
